Active and inactive are the calls of the source. The rule behind the calls is not given here.
Legend:
BaF3 = test: Antiproliferative activity against mouse parental BaF3 cells assessed as cell growth inhibition incubated for 72 hrs by Cell-TiterGlo assay; assay type: functional
[1] = Antiproliferative activity against mouse Ba/F3-TEL-JAK1 cells assessed as cell growth inhibition incubated for 72 hrs by Cell-TiterGlo assay; assay type: functional
NCI-H1975 [2] = test: Antiproliferative activity against human NCI-H1975 cells assessed as cell growth inhibition incubated for 72 hrs by Cell-TiterGlo assay; assay type: functional
NCI-H2087 [3] = test: Antiproliferative activity against human NCI-H2087 cells assessed as cell growth inhibition incubated for 72 hrs by Cell-TiterGlo assay; assay type: functional
[4] = target: Tyrosine-protein kinase JAK1 (Homo sapiens, UniProt P23458); test: Inhibition of N-terminal GST-tagged human recombinant JAK1 (438 to end residues) extracted from baculovirus infected in Sf9 cells using KKHTDDGYMPMSPGVA as substrate preincubated for 15 min followed by substrate addition and measured after 1 hr by ADP-Glo kinase assay
Chain of Tyrosine-protein kinase JAK1 (P23458 whole entry): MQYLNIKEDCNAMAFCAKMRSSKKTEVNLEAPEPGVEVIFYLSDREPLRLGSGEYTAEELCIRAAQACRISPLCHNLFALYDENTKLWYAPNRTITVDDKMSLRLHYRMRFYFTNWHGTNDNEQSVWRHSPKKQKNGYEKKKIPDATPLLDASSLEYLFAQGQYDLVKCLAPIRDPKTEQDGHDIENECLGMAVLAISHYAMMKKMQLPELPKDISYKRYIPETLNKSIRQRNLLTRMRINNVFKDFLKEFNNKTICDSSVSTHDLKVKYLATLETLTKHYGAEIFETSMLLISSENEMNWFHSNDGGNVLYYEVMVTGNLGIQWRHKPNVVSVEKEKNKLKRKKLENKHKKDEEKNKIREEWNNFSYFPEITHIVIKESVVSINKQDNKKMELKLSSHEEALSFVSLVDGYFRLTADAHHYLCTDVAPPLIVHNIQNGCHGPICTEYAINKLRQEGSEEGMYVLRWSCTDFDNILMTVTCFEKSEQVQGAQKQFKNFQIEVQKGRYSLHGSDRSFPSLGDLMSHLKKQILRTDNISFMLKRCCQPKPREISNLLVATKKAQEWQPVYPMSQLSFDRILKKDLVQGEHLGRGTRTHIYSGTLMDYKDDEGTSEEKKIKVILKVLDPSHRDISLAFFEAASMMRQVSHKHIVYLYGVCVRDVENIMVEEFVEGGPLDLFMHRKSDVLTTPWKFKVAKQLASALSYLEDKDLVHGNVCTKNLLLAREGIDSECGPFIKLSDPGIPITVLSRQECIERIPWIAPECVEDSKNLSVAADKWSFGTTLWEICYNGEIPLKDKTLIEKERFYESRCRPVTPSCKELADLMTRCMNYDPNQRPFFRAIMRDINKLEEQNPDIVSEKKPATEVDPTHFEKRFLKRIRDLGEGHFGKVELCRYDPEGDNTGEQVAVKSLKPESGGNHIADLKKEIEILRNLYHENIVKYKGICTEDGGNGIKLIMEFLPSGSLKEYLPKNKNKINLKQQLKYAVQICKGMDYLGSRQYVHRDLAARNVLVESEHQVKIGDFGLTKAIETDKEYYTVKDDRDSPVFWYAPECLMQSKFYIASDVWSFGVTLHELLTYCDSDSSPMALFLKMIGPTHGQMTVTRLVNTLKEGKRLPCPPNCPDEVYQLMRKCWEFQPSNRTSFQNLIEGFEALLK

[5] = target: T1, Tyrosine-protein kinase JAK2 (Homo sapiens, UniProt O60674); test: Inhibition of N-terminal GST-tagged human recombinant JAK2 (804 to end residues) extracted from baculovirus infected in Sf9 cells using IGF1Rtide as substrate preincubated for 15 min followed by substrate addition and measured after 1 hr by ADP-Glo kinase assay
T1 sequence (O60674 whole entry): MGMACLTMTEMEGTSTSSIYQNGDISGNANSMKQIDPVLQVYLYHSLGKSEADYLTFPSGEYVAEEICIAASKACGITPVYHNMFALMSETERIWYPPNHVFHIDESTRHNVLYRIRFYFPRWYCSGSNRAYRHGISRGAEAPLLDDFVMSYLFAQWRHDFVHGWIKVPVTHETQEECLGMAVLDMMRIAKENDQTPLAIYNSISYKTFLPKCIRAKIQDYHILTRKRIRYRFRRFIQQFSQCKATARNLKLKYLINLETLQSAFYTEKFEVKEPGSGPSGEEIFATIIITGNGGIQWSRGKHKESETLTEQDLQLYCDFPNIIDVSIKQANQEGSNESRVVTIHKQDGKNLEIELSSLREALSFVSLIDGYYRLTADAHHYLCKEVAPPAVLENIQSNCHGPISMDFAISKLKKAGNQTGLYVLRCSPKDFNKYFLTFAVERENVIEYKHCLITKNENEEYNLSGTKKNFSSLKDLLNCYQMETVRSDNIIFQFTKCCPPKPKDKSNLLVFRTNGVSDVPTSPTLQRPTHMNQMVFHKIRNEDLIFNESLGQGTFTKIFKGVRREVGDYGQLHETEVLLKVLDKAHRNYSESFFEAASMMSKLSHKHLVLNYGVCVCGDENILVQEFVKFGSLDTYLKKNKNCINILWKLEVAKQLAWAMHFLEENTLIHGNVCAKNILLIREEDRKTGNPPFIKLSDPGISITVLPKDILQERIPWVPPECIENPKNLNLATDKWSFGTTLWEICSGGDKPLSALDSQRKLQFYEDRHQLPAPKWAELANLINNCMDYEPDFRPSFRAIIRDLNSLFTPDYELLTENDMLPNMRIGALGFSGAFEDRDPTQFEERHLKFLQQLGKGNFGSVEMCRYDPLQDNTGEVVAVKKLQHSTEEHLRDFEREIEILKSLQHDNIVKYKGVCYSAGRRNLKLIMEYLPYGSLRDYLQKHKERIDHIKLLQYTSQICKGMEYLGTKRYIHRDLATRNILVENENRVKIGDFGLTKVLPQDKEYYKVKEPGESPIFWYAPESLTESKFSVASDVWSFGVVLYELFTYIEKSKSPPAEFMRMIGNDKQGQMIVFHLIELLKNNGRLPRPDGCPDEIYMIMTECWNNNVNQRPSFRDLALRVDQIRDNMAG

[6] = target: T2, Tyrosine-protein kinase JAK3 (Homo sapiens, UniProt P52333); test: Inhibition of N-terminal GST-tagged human recombinant JAK3 (781 to end residues) extracted from baculovirus infected in Sf9 cells using Poly(4:1 Glu, Tyr) as substrate preincubated for 15 min followed by substrate addition and measured after 1 hr by ADP-Glo kinase assay
T2 sequence (P52333 whole entry): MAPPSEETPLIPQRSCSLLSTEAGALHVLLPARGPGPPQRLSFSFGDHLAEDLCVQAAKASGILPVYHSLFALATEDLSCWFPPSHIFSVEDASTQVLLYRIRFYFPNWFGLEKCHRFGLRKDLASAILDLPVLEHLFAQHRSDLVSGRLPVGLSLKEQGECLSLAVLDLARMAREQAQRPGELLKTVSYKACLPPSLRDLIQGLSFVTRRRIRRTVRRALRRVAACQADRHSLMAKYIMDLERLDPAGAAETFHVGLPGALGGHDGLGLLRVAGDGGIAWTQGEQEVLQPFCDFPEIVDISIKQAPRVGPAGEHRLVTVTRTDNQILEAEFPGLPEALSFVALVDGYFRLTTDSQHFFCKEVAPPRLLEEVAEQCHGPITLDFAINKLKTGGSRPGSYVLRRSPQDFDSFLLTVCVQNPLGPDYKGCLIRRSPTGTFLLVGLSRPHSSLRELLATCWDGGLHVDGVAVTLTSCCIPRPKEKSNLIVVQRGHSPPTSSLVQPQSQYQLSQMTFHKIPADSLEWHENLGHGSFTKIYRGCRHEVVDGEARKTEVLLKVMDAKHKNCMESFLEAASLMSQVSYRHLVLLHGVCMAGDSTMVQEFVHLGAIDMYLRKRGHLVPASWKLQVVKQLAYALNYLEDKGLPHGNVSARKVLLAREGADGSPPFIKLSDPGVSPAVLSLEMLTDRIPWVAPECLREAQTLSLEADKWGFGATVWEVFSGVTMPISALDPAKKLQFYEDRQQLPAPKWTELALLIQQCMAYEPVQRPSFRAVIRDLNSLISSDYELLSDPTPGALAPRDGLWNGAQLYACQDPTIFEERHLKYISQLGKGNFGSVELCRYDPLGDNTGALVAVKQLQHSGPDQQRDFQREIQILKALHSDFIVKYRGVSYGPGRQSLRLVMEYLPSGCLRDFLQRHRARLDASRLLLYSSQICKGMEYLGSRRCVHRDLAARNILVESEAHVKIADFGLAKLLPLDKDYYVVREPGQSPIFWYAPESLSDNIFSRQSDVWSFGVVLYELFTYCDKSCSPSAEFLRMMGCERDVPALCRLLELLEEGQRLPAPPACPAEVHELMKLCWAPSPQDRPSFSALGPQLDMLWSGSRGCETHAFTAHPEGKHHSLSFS

NCI-H1975 [7] = test: Inhibition of colony formation in human NCI-H1975 cells at 10 uM incubated for 14 days by crystal violet staining based 2D colony formation assay; assay type: functional, cell-based; details: time 14.0 day
NCI-H2087 [8] = test: Inhibition of colony formation in human NCI-H2087 cells at 10 uM incubated for 14 days by crystal violet staining based 2D colony formation assay; assay type: functional, cell-based; details: time 14.0 day
NCI-H1975 [9] = test: Induction of cell cycle arrest in human NCI-H1975 cells assessed as accumulation of cells at G2/M phase at 1 to 10 uM incubated for 24 hrs by propidium iodide/RNase staining based analysis; assay type: functional; details: dose 1-10 µM
NCI-H2087 [10] = test: Induction of cell cycle arrest in human NCI-H2087 cells assessed as accumulation of cells at G2/M phase at 1 to 10 uM incubated for 24 hrs by propidium iodide/RNase staining based analysis; assay type: functional; details: dose 1-10 µM
NCI-H1975 [11] = test: Induction of apoptosis in human NCI-H1975 cells at 1 to 10 uM incubated for 24 hrs by Annexin V/Propidium iodide staining based analysis; assay type: functional, cell-based; details: dose 1-10 µM
NCI-H2087 [12] = test: Induction of apoptosis in human NCI-H2087 cells at 1 to 10 uM incubated for 24 hrs by Annexin V/Propidium iodide staining based analysis; assay type: functional, cell-based; details: dose 1-10 µM
NCI-H1975 [13] = test: Synergistic antiproliferative activity against human NCI-H1975 cells assessed as cell growth inhibition measured after 48 hrs in presence of osimertinib by celltiterglo analysis; assay type: functional, cell-based
[14] = target: T1, Tyrosine-protein kinase JAK2; test: Inhibition of human JAK2 at 0.1 uM preincubated for 20 min followed by 33P-ATP addition measured after 2 hrs by P81 filter-binding method relative to control; details: time 140.0 min
[15] = target: T3, Tyrosine-protein kinase JAK3 (Homo sapiens) (UniProt P52333); test: Inhibition of human JAK3 at 0.1 uM preincubated for 20 min followed by 33P-ATP addition measured after 2 hrs by P81 filter-binding method relative to control; details: time 140.0 min
T3 sequence (whole entry): T2 sequence (P52333 whole entry)

[16] = target: Non-receptor tyrosine-protein kinase TYK2 (Homo sapiens) (UniProt P29597); test: Inhibition of human TYK2 at 0.1 uM preincubated for 20 min followed by 33P-ATP addition measured after 2 hrs by P81 filter-binding method relative to control; details: time 140.0 min
Chain of Non-receptor tyrosine-protein kinase TYK2 (Homo sapiens) (P29597 whole entry): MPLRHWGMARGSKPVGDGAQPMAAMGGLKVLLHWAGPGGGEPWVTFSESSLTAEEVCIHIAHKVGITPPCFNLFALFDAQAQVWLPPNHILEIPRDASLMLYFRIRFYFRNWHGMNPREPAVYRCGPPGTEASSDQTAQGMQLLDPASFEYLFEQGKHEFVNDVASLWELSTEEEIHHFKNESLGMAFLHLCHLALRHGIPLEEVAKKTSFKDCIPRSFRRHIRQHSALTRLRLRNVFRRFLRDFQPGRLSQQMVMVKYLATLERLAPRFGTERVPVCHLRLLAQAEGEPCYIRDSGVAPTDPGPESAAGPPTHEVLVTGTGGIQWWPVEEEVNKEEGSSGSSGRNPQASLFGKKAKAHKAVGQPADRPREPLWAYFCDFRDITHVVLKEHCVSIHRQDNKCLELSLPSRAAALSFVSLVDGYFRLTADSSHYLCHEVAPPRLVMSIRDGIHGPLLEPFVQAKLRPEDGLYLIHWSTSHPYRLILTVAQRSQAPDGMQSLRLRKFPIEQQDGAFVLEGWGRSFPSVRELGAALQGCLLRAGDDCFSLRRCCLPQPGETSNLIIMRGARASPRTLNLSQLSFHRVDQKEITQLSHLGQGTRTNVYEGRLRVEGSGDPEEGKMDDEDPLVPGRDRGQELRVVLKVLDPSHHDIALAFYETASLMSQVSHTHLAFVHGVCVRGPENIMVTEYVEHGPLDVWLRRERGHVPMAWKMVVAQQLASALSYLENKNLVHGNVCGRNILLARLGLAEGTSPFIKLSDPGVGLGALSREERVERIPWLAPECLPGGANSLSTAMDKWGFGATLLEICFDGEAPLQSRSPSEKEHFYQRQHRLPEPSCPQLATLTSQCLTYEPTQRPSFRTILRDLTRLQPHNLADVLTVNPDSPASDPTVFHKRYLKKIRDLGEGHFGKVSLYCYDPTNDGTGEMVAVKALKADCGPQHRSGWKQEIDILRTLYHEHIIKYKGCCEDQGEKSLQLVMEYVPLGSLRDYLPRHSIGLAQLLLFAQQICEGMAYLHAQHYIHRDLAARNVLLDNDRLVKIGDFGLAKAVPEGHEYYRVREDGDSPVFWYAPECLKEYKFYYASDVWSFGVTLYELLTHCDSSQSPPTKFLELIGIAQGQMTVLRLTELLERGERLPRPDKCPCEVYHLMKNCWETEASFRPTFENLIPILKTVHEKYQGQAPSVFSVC

[17] = target: T4, Aurora kinase C (Homo sapiens) (UniProt Q9UQB9); test: Inhibition of human Aurora C at 0.1 uM preincubated for 20 min followed by 33P-ATP addition measured after 2 hrs by P81 filter-binding method relative to control; details: time 140.0 min
T4 sequence (whole entry): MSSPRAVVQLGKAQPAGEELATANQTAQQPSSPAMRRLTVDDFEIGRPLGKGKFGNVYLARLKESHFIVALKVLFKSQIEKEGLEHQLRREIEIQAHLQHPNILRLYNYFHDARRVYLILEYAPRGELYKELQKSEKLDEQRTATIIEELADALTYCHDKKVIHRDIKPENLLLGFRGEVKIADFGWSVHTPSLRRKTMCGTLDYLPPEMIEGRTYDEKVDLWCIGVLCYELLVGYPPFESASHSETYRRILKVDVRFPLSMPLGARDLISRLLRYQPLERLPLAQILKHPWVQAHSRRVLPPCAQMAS

[18] = target: Receptor-type tyrosine-protein kinase FLT3 (Homo sapiens) (UniProt P36888); test: Inhibition of human FLT3 at 0.1 uM preincubated for 20 min followed by 33P-ATP addition measured after 2 hrs by P81 filter-binding method relative to control; details: time 140.0 min
NCI-H1975 [19] = test: Antiproliferative activity against human NCI-H1975 cells overexpressing JAK1 assessed as suppression of cell growth incubated for 72 hrs by Cell-TiterGlo assay; assay type: functional, cell-based
NCI-H2087 [20] = test: Antiproliferative activity against human NCI-H2087 cells overexpressing JAK1 assessed as suppression of cell growth incubated for 72 hrs by Cell-TiterGlo assay; assay type: functional, cell-based
UMUC3 = test: Antiproliferative activity against human UMUC3 cells overexpressing JAK1 assessed as suppression of cell growth incubated for 72 hrs by Cell-TiterGlo assay; assay type: functional, cell-based
U2OS = test: Antiproliferative activity against human U2OS cells overexpressing JAK1 assessed as suppression of cell growth incubated for 72 hrs by Cell-TiterGlo assay; assay type: functional, cell-based
HT-29 = test: Antiproliferative activity against human HT-29 cells overexpressing JAK1 assessed as suppression of cell growth incubated for 72 hrs by Cell-TiterGlo assay; assay type: functional, cell-based
HCT-116 = test: Antiproliferative activity against human HCT-116 cells overexpressing JAK1 assessed as suppression of cell growth incubated for 72 hrs by Cell-TiterGlo assay; assay type: functional, cell-based
[21] = target: Signal transducer and activator of transcription 3 (Homo sapiens) (UniProt P40763); test: Inhibition of STAT3 phosphorylation in human NCI-H1975 cells incubated for 1 hr by Western blot analysis; assay type: cell-based; details: dose 1-10 µM
Chain of Signal transducer and activator of transcription 3 (Homo sapiens) (P40763 whole entry): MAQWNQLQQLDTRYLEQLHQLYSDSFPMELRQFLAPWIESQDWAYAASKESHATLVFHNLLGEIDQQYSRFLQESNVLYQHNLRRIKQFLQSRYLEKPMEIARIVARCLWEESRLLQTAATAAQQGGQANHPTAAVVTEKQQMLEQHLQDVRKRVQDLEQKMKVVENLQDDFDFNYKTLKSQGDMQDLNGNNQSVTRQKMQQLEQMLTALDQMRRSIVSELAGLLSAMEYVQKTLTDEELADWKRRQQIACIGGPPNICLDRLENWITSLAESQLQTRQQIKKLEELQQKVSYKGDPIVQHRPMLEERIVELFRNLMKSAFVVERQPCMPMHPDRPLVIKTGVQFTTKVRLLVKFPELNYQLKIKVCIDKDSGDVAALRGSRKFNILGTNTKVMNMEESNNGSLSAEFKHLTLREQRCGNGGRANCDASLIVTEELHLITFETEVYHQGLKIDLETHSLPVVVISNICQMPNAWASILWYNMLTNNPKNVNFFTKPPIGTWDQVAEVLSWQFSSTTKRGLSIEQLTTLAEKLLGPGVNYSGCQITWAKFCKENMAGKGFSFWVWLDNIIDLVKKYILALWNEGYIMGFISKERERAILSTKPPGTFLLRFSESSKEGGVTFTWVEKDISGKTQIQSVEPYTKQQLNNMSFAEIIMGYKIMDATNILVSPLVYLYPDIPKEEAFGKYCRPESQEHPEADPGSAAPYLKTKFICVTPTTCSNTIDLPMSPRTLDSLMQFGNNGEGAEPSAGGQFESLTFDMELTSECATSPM

[22] = target: Signal transducer and activator of transcription 3 (Homo sapiens) (UniProt P40763); test: Inhibition of STAT3 phosphorylation in human NCI-H2087 cells incubated for 1 hr by Western blot analysis; assay type: cell-based; details: dose 1-10 µM
NCI-H1975 [23] = test: Inhibition of colony formation in human NCI-H1975 cells at 10 uM incubated for 14 days by crystal violet staining based 2D colony formation assay relative to control; assay type: functional; details: NCI-H1975, 336 h, time 14 day
NCI-H2087 [24] = test: Inhibition of colony formation in human NCI-H2087 cells at 10 uM incubated for 14 days by crystal violet staining based 2D colony formation assay relative to control; assay type: functional; details: NCI-H2087, 336 h, time 14 day
NCI-H1975 [25] = test: Upregulation of STAT3 phosphorylation level in human NCI-H1975 cells; assay type: functional, cell-based
NCI-H2087 [26] = test: Upregulation of STAT3 phosphorylation level in human NCI-H2087 cells; assay type: functional, cell-based

GI50 (NCI-H1975 [2]) [µM]	GI50 (NCI-H2087 [3]) [µM]	IC50 [5] [µM]	IC50 [6] [µM]	Compound	GI50 (BaF3) [µM]	GI50 [1] [µM]	Activity (NCI-H1975 [9])	Activity (NCI-H2087 [10])	Activity (NCI-H1975 [11])	Activity (NCI-H2087 [12])	Activity (NCI-H1975 [13])	further results
36.7	40.2	0.613	1.92	COc1nn(C)cc1Nc1nccc(-c2c[nH]c3c(NC(=O)[C@@H](C)N4CCN(C)CC4)cccc23)n1 [GOLIDOCITINIB]	3.67	0.514	Active	Active	Active	Active	Active	IC50 [4]: 0.082 µM; inhibition (NCI-H1975 [7]): Active; inhibition (NCI-H2087 [8]): Active
2.46	6.81	3.58	4.03	COc1nn(C)cc1Nc1ncc2scc(-c3cccc(NC(=O)[C@@H](C)N4CCN(C)CC4)c3)c2n1	1.45	0.447	Active	Active	Active	Active	Active	inhibition [14]: 61.8%; inhibition [15]: 15.5%; inhibition [16]: 18.1%; inhibition [17]: 83.7%; inhibition [18]: 82.5%; Activity (NCI-H1975 [19]): Active; Activity (NCI-H2087 [20]): Active; Activity (UMUC3): Active; Activity (U2OS): Active; Activity (HT-29): Active; Activity (HCT-116): Active; inhibition [21]: Dose-dependent-effect; inhibition [22]: Dose-dependent-effect; inhibition at 10 µM (NCI-H1975 [23]): 100%; inhibition at 10 µM (NCI-H2087 [24]): 100%; Activity (NCI-H1975 [25]): Active; Activity (NCI-H2087 [26]): Active
